In brackets after ≈: the same amount, converted by molar mass.
Tests used:
[1] = Aqueous solubility by UV spectrophotometry (500 μM solutions in aqueous media from DMSO stock); type: physicochemical; details: for solubility: kinetic from dmso stock, aqueous media, 500 μM solution prepared from DMSO stock, UV OD at λmax; for Aqueous solubility compared with Quercetin (II) / QC-12 (IV), in words: comparison drawn from Table-II
Procedure: The aqueous solubility of the novel Quercetin derivatives of formula (I) were determined and subsequently compared with QC 12. 500 μM solutions of the various novel Quercetin derivatives were prepared in aqueous media from DMSO stock solution. The samples were scanned in UV spectrophotometer at its λmax to obtain optical density (O.D) of the compound. Concentration against the OD value was obtained by calibration curve constructed by plotting the Optical density Vs concentration of calibration standards of the compounds.
Calibration standards were prepared by diluting the stock solution of the compound further in suitable solvents ensuring the overall compound solubility. Calibration standard of concentration 500 μM, 200 μM, 50 μM, 12.5 μM and 3.13 μM were prepared. These calibration standards were scanned in UV spectrophotometer at its highest wavelength (λmax) to obtain the optical density values (OD). A standard curve was constructed by plotting the Optical density Vs concentration.

[2] = tested on: SKOV3 (Ovary) cancer cells; test: Colorimetric MTT conversion assay, SKOV3; type: cell-based; details: Homo sapiens, SK-OV-3, 72 h exposure, 10 μM to 100 μM
Procedure: (§1) The anticancer potential of the novel Quercetin derivatives of formula (I) were evaluated and subsequently compared with Quercetin (II). The anticancer potential was determined by the colorimetric MTT conversion assay of Mossman. Human cancer cells representing ovary (PA-1; SK-OV-3); prostate (DU 145); lung (A-549) and normal fibroblast (NIH-3T3) were separately seeded at density of 1000 cells/well into 96 well plates in 180 μl of culture medium with 10% fetal calf serum. After 24 h, cells were incubated with different concentrations of the novel Quercetin derivatives ranging from 10 μM to 100 μM with relevant controls at 37° C. in a CO2 incubator in triplicate wells. The exposure medium (Quercetin derivatives in culture medium) of all the cells was refreshed after every 24 h. Cells were incubated with the derivatives for total of 72 h. The assay was terminated by the addition of 20 μl, of MTT solution (5 mg/ml) in each well and percentage cytotoxicity was calculated as given below. The IC50 values were determined by nonlinear regression using Prism software v 4.01.
(§2) Percentage Cytotoxicity=100×[1−(X/R1)], where X=absorbance of treated sample at 540 nm

[3] = tested on: PA-1 (Ovary) cancer cells; test: Colorimetric MTT conversion assay, PA-1; type: cell-based; details: Homo sapiens, 72 h exposure, 10 μM to 100 μM
Procedure: as §1, §2

[4] = tested on: DU 145 (Prostate) cancer cells; test: Colorimetric MTT conversion assay, DU 145; type: cell-based; details: Homo sapiens, 72 h exposure, 10 μM to 100 μM
Procedure: as §1, §2

[5] = tested on: A 549 (Lung) cancer cells; test: Colorimetric MTT conversion assay, A 549; type: cell-based; details: Homo sapiens, A549, 72 h exposure, 10 μM to 100 μM
Procedure: as §1, §2

[6] = tested on: NIH 3T3 (Normal) fibroblast; test: Colorimetric MTT conversion assay, NIH 3T3; type: cell-based; details: Mus musculus, NIH3T3, 72 h exposure, 10 μM to 100 μM
Procedure: as §1, §2

[7] = Plasma stability (half-life in plasma, 100 μM, 37° C., liquid chromatography); type: in vitro ADME; details: plasma spiked at 100 μM, incubated at 37° C.
Procedure: The Plasma stability of the novel Quercetin derivatives of formula (I) were evaluated by determining their half-life in plasma and subsequently compared with QC-12 (IV). Plasma samples of concentration 100 μM spiked with the compounds were incubated at 37° C. and at specified time point the samples were quenched using chilled acetonitrile. Samples were then analyzed using liquid chromatography to determine the concentration at respective time point. Half-life was calculated from the logarithmic curve drawn between time and concentration.

[8] = tested on: different Cancer Cell Lines; test: Colorimetric MTT conversion assay, overall comparison over the cell line panel; type: cell-based, Human; details: comparison drawn from Table-IV
Procedure: as §1, §2

SMILES | solubility [1] | IC50 [2] | IC50 [3] | IC50 [4] | IC50 [5] | IC50 [6] | Aqueous solubility compared with Quercetin (II) / QC-12 (IV), in words [1] | half-life at 100 μM [7] | Cytotoxic potential compared with Quercetin (II), in words [8]
CCCC(=O)OCOc1cc(-c2oc3cc(OCc4ccccc4)cc(O)c3c(=O)c2OCc2ccccc2)ccc1OCc1ccccc1 [Compound No. 13, (2-(Benzyloxy)-5-(3,7-bis(benzyloxy)-5-hydroxy-4-oxo-4H-chromen-2-yl)phenoxy)methyl butyrate] | < 3.13 µM | > 100 µM | > 100 µM | > 100 µM | > 100 µM | > 100 µM | – | – | –
O=c1c(O)c(-c2ccc(O)c(O)c2)oc2cc(O)cc(O)c12 [Quercetin (II), 2-(3,4-Dihydroxyphenyl)-3,5,7-trihydroxy-4H-1-benzopyran-4-one, reference compound] | 4.02 µM (≈ 1.22 µg/mL) | 88.4 µM | 35.3 µM | > 100 µM | 83.7 µM | 68.7 µM | – | – | –
CC(=O)OCOc1cc(-c2oc3cc(O)cc(O)c3c(=O)c2O)ccc1O [Compound No. 8, (2-hydroxy-5-(3,5,7-trihydroxy-4-oxo-4H-chromen-2-yl)phenoxy)methyl acetate] | 16.5 µM | > 100 µM | 19.4 µM | > 100 µM | – | > 100 µM | better solubility than Quercetin (II) | < 3 min | better cytotoxic potential than Quercetin (II)
O=C(O)CNC(=O)Oc1cc(-c2oc3cc(O)cc(O)c3c(=O)c2O)ccc1O [QC-12 (IV), reference compound] | > 200 µM | – | – | – | – | – | – | 43.9 min | –
CC(C)(C)C(=O)OCOc1cc(-c2oc3cc(O)cc(O)c3c(=O)c2O)ccc1O [Compound No. 7, (2-hydroxy-5-(3,5,7-trihydroxy-4-oxo-4H-chromen-2-yl)phenoxy)methyl pivalate] | 30.6 µM (≈ 12.7 µg/mL) | > 100 µM | 20.9 µM | 83.1 µM | – | > 100 µM | better solubility than Quercetin (II) | 6.24 min | better cytotoxic potential than Quercetin (II)
CC(=O)OCOc1cc(-c2oc3cc(OCc4ccccc4)cc(O)c3c(=O)c2OCc2ccccc2)ccc1OCc1ccccc1 [Compound No. 2, (2-(Benzyloxy)-5-(3,7-bis(benzyloxy)-5-hydroxy-4-oxo-4H-chromen-2-yl)phenoxy)methyl acetate] | 0.591 µM | > 100 µM | > 100 µM | > 100 µM | – | > 100 µM | – | – | –
CC(C)(C)C(=O)OCOc1cc(-c2oc3cc(OCc4ccccc4)cc(O)c3c(=O)c2OCc2ccccc2)ccc1OCc1ccccc1 [Compound No. 1, (2-(Benzyloxy)-5-(3,7-bis(benzyloxy)-5-hydroxy-4-oxo-4H-chromen-2-yl)phenoxy)methyl pivalate] | 1.48 µM (≈ 1.02 µg/mL) | > 100 µM | > 100 µM | > 100 µM | – | > 100 µM | – | – | –
CCCC(=O)OCOc1cc(-c2oc3cc(O)cc(O)c3c(=O)c2O)ccc1O [Compound No. 14, (2-hydroxy-5-(3,5,7-trihydroxy-4-oxo-4H-chromen-2-yl)phenoxy)methyl butyrate] | 199 µM (≈ 80.1 µg/mL) | 94.6 µM | < 10 µM | > 100 µM | 61.9 µM | > 100 µM | solubility comparable to QC-12 (IV) | < 3 min | better cytotoxic potential than Quercetin (II)
